Target: T1, human RXFP1 (Homo sapiens, UniProt Q9HBX9)
T1 construct: expressed in transfected cells
T1 sequence (Q9HBX9 1-757): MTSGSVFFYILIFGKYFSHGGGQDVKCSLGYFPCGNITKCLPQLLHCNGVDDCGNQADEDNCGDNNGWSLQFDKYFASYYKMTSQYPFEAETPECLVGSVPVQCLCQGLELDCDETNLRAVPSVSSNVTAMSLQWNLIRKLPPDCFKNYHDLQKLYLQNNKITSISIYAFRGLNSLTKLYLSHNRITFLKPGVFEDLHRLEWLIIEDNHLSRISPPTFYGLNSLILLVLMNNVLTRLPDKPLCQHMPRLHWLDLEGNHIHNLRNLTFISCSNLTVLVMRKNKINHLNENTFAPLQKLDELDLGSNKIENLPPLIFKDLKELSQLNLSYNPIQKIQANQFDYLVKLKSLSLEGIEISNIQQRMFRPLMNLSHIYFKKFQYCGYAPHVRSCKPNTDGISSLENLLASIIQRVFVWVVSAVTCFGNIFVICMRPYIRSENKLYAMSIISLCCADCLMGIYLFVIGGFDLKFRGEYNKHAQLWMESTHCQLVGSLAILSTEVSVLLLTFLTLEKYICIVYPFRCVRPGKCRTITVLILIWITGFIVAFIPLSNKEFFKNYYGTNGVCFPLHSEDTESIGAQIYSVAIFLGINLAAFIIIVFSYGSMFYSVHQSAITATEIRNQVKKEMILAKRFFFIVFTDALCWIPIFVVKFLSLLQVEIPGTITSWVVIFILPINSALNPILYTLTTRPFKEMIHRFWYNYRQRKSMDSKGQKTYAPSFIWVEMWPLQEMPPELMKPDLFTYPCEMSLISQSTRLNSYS
Assay: RXFP1 cAMP assay (hRXFP1 HEK293 cAMP assay, HTRF)
Format: cell-based
Conditions: HEK293 cells stably expressing human RXFP1, 30 min at room temperature, read-out: cAMP hRXFP1 HEK293 Assay EC50
Protocol: RXFP1 Cyclic Adenosine Monophosphate (cAMP) Assays. […] Cells were dissociated and suspended in assay buffer. The assay buffer was HBSS buffer (with calcium and magnesium) containing 20 mM HEPES, 0.05% BSA, and 0.5 mM IBMX. Cells (3000 cells per well, except 1500 cell per well for HEK293 cells stably expressing human RXFP1) were added to 384-well Proxiplates (Perkin-Elmer). Cells were immediately treated with test compounds in DMSO (2% final) at final concentrations in the range of 0.010 nM to 50 μM. Cells were incubated for 30 min at room temperature. The level of intracellular cAMP was determined using the HTRF HiRange cAMP assay reagent kit (Cisbio) according to manufacturer's instructions. Solutions of cryptate conjugated anti-cAMP and d2 fluorophore-labelled cAMP were made in a supplied lysis buffer separately. Upon completion of the reaction, the cells were lysed with equal volume of the d2-cAMP solution and anti-cAMP solution. […] The potency and activity of a compound to […] cAMP production was then determined by fitting to a 4-parametric logistic equation from a plot of cAMP level versus compound concentrations.

SMILES | EC50
COc1ccc(C2=NOC3CC(CO)CC23)cc1C(=O)N[C@H]1[C@@H](C(=O)Nc2ccc(F)c(C(F)(F)F)c2)[C@H]2CC[C@@H]1/C2=C\C1CCC1 (stereo partly shown) [compound 446] | 0.0006 µM
O=C(N[C@H]1[C@@H](C(=O)Nc2ccc(F)c(C(F)(F)F)c2)[C@H]2CC[C@@H]1/C2=C\C1CC1)c1cc(C2=NOC3CC(CO)CC23)cc(F)c1OCCCF (stereo partly shown) [compound 784] | 0.0034 µM
COc1ccc(C2=NOC3CS(=O)(=O)CC23)cc1C(=O)N[C@@H]1C2CCC(/C2=C/C2CC2)[C@@H]1C(=O)Nc1ccc(F)c(C(F)(F)F)c1 (single isomer, unassigned) [compound 444] | 0.41 µM
COc1ccc(C2=NOC3COCC23)cc1C(=O)N[C@H]1[C@@H](C(=O)N[C@H](CF)C2(C)CC2)[C@H]2CC[C@@H]1/C2=C\C1CC1 (stereo partly shown) [compound 771] | 0.0038 µM
COc1ccc(-c2cc(C(=O)N3CCCC3)ccc2F)cc1C(=O)N[C@@H]1C2CCC(/C2=C/c2cnoc2)[C@@H]1C(=O)Nc1ccc(F)c(C(F)(F)F)c1 (stereo partly shown) [compound 191] | 0.042 µM
COc1cc(F)c(F)cc1C(=O)N[C@@H]1C2CCC(/C2=C/c2ccccn2)[C@@H]1C(=O)Nc1ccc(F)c(C(F)(F)F)c1 (stereo partly shown) [compound 137] | 0.48 µM
COc1ccc(-c2cc(C(N)C(=O)O)ccc2F)cc1C(=O)NC1[C@@H]2CC[C@@H](/C2=C/C2CC2)[C@@H]1C(=O)Nc1ccc(F)c(C(F)(F)F)c1 (stereo partly shown) [compound 969] | 0.0036 µM
COc1ccc(C2=NOC3(CCCC3)C2)cc1C(=O)N[C@H]1[C@@H](C(=O)Nc2ccc(F)c(C(F)(F)F)c2)[C@H]2CC[C@@H]1/C2=C\C1CC1 [compound 642] | 0.219 µM
COc1ccc(C2=NOC(C(N)=O)C2)cc1C(=O)N[C@@H]1C2CCC(/C2=C/C2CC2)[C@@H]1C(=O)Nc1ccc(F)c(C(F)(F)F)c1 (stereo partly shown) [compound 404] | 0.045 µM
COc1ccc(-c2cc(C(=O)O)ccc2F)cc1C(=O)N[C@@H]1C2CCC(/C2=C/C2CC2)[C@@H]1C(=O)NCc1ccccc1 (stereo partly shown) [compound 260] | 2.97 µM
COc1ccc(C2=NOC(CCO)C2)cc1C(=O)N[C@@H]1C2CCC(/C2=C/C2CC2)[C@@H]1C(=O)Nc1ccc(F)c(C(F)(F)F)c1 (stereo partly shown) [compound 399] | 0.042 µM
CNC(=O)OC(C(=O)NC)c1ccc(F)c(-c2ccc(OC)c(C(=O)N[C@@H]3C4CCC(/C4=C/C4CC4)[C@@H]3C(=O)Nc3ccc(F)c(C(F)(F)F)c3)c2)c1 (stereo partly shown) [compound 235] | 0.001 µM
COc1ccc(C2=NOC3CC(C(C)O)CC23)cc1C(=O)N[C@H]1[C@@H](C(=O)Nc2ccc(F)c(C(F)(F)F)c2)[C@H]2CC[C@@H]1/C2=C\C1CC1 (stereo partly shown) [compound 845] | 0.0013 µM
O=C(N[C@H]1[C@@H](C(=O)Nc2ccc(F)c(C(F)(F)F)c2)[C@H]2CC[C@@H]1/C2=C\C1CC1)c1cc(C2=NOC3CC(CO)CC23)ccc1F (single isomer, unassigned) [compound 717] | 2.32 µM
COCCOCCOc1ccc(-c2cc(C(=O)O)ccc2F)cc1C(=O)N[C@@H]1C2CCC(/C2=C/c2ccccc2)[C@@H]1C(=O)Nc1ccc(F)c(C(F)(F)F)c1 (stereo partly shown) [Example 199] | 0.128 µM
COc1ccc(C#N)cc1C(=O)N[C@@H]1C2CCC(/C2=C/c2ccccc2)[C@@H]1C(=O)Nc1ccc(F)c(C(F)(F)F)c1 (stereo partly shown) [compound 128] | 0.055 µM
COc1c(F)cc(-c2ccc3c(c2)S(=O)(=O)N(C(C)(C)C)C3)cc1C(=O)N[C@H]1[C@@H](C(=O)N[C@H](C)C2(C)CC2)[C@H]2CC[C@@H]1/C2=C\C1CC1 [compound 916] | 0.0036 µM
COc1cc(F)c(F)cc1C(=O)N[C@@H]1C2CCC(/C2=C/C=C/c2ccccc2)[C@@H]1C(=O)Nc1ccc(F)c(C(F)(F)F)c1 (stereo partly shown) [compound 64] | 0.52 µM
COc1ccc(C2=NOC(C)(CO)C2)cc1C(=O)N[C@H]1[C@@H](C(=O)Nc2ccc(F)c(C(F)(F)F)c2)[C@H]2CC[C@@H]1C2=CC1CC1 (single isomer, unassigned) [compound 480] | 0.0067 µM
COc1cc(F)c(F)cc1C(=O)N[C@@H]1C2CCC(/C2=C/c2ccc3ccccc3c2)[C@@H]1C(=O)Nc1ccc(F)c(C(F)(F)F)c1 (stereo partly shown) [compound 18] | 0.63 µM

SMILES | EC50
COc1ccc(N2C[C@H](O)CC2=O)cc1C(=O)N[C@H]1[C@@H](C(=O)Nc2ccc(F)c(C(F)(F)F)c2)[C@H]2CC[C@@H]1/C2=C\C1CC1 [compound 639] | 0.212 µM
COc1c(F)cc(-c2cnc3n2CC(O)CC3)cc1C(=O)N[C@H]1[C@@H](C(=O)Nc2ccc(F)c(C(F)(F)F)c2)[C@H]2CC[C@@H]1/C2=C\C1CC1 (stereo partly shown) [compound 751] | 0.0022 µM
COc1ccc(C2=NOC3COCC23)cc1C(=O)N[C@H]1[C@@H](C(=O)NCC2C(C)(C)C2(C)C)[C@H]2CC[C@@H]1/C2=C\C1CC1 (stereo partly shown) [compound 586] | 0.0791 µM
COc1ccc(-c2cc(CC(=O)O)ccc2F)cc1C(=O)N[C@@H]1C2CCC(C2=C(C)C)[C@@H]1C(=O)Nc1ccc(F)c(C(F)(F)F)c1 (stereo partly shown) [compound 155] | 0.087 µM
COc1cc(F)c(F)cc1C(=O)N[C@@H]1C2CCC(/C2=C/C(C)(C)O)[C@@H]1C(=O)Nc1ccc(F)c(C(F)(F)F)c1 (stereo partly shown) [Example 65] | 2 µM
COc1ccc(C2=NOC3C(O)CCC23)cc1C(=O)N[C@H]1[C@@H](C(=O)Nc2ccc(F)c(C(F)(F)F)c2)[C@H]2CC[C@@H]1/C2=C\C1CC1 (single isomer, unassigned) [compound 706] | 1.3 µM
COc1ccc(C2=NOC3COCC23)cc1C(=O)N[C@H]1[C@@H](C(=O)NC2CCOC(C)(C)C2)[C@H]2CC[C@@H]1/C2=C\C1CC1 (single isomer, unassigned) [compound 679] | 0.563 µM
COc1ccc(C2=NOC3COCC23)cc1C(=O)N[C@H]1[C@@H](C(=O)NCc2cc(C)ccc2C(F)(F)F)[C@H]2CC[C@@H]1/C2=C\C1CC1 (stereo partly shown) [compound 659] | 0.347 µM
COc1ccc(C2=NOC3CC(CO)CC23)cc1C(=O)NC1C2CCC(C2=CC2CC2)C1C(=O)NCC(C)(C)C (stereo not shown) [Example 453] | 0.0019 µM
COc1ccc(C2=NOC(CC(C)(C)O)C2)cc1C(=O)N[C@H]1[C@@H](C(=O)Nc2ccc(F)c(C(F)(F)F)c2)[C@H]2CC[C@@H]1/C2=C\C1CC1 (single isomer, unassigned) [compound 528] | 0.0224 µM
COc1ccc(-c2cc(C(NC(=O)Cc3ccccc3)C(=O)O)ccc2F)cc1C(=O)N[C@@H]1C2CCC(/C2=C/C(F)(F)F)[C@@H]1C(=O)Nc1ccc(F)c(C(F)(F)F)c1 (stereo partly shown) [compound 240] | 0.001 µM
COc1ccc(-c2cnc3cc(CO)ccn23)cc1C(=O)N[C@@H]1C2CCC(/C2=C/C2CC2)[C@@H]1C(=O)Nc1ccc(F)c(C(F)(F)F)c1 (stereo partly shown) [compound 974] | 0.0045 µM
COc1ccc(-c2cc(C(CO)NC(=O)C3CCOCC3)ccc2F)cc1C(=O)N[C@@H]1C2CCC(/C2=C/C2CC2)[C@@H]1C(=O)Nc1ccc(F)c(C(F)(F)F)c1 (stereo partly shown) [compound 257] | 0.016 µM
CC(C)=C1C2CCC1[C@H](C(=O)Nc1ccc(F)c(C(F)(F)F)c1)[C@@H]2NC(=O)c1ccccc1N(C)C (stereo partly shown) [compound 119] | 3.9 µM
COc1ccc(-c2cc([C@H](OC(=O)NC3CC3)C(F)(F)F)ccc2F)cc1C(=O)N[C@H]1[C@@H](C(=O)Nc2ccc(F)c(C(F)(F)F)c2)[C@H]2CC[C@@H]1/C2=C\C(C)C [compound 930] | 0.0011 µM
COc1ccc(C2=NOC(C3(O)CCC3)C2)cc1C(=O)N[C@H]1[C@@H](C(=O)Nc2ccc(F)c(C(F)(F)F)c2)[C@H]2CC[C@@H]1/C2=C\C1CC1 (single isomer, unassigned) [compound 515] | 0.0172 µM
CCO/N=C1\C2CCC1[C@H](C(=O)Nc1ccc(F)c(C(F)(F)F)c1)[C@@H]2NC(=O)c1cc(-c2cc(C(=O)O)ccc2F)ccc1OC (stereo partly shown) [Example 130] | 0.44 µM
CCCOc1c(F)cc(C2=NOC3CC(CO)CC23)cc1C(=O)N[C@H]1[C@@H](C(=O)Nc2ccc(F)c(C(F)(F)F)c2)[C@H]2CC[C@@H]1/C2=C\C1CC1 (stereo partly shown) [compound 782] | 0.0032 µM
COc1ccc(C2=NOC3C(O)CC(O)C23)cc1C(=O)N[C@H]1[C@@H](C(=O)Nc2ccc(F)c(C(F)(F)F)c2)[C@H]2CC[C@@H]1/C2=C\C1CC1 (single isomer, unassigned) [compound 680] | 0.582 µM
COc1ccc(C2=NC[C@H]3CCCN23)cc1C(=O)N[C@H]1[C@@H](C(=O)Nc2ccc(F)c(C(F)(F)F)c2)[C@H]2CC[C@@H]1/C2=C\C1CC1 [Example 699] | 1.03 µM

— patent US20250221966A1, “RXFP1 AGONISTS” (BRISTOL-MYERS SQUIBB COMPANY, priority 2021, published 2025)
